Literature values, collected in patent US8183203B2, “Methods for treating pulmonary hypertension and compositions comprising vasoactive intestinal peptide” (Avant Garde Therapeutics & Technologies LLC, priority 1999, dated 2012).

What was measured:
[1] = test system: isolated rat hearts
[2] = test system: Na+ channels; settings: isolated rabbit ventricular myocytes, acute
[3] = test system: dogs left in ventricular fibrillation; settings: four dogs, ventricular fibrillation for seven minutes, 4 μg/kg IV bolus, then defibrillated

| Compound | time to peak action (onset of inotropic action) [1] [s] | maximum dp/dt (contractility) after a bolus injection [1] | burst mode gating of Na+ channels [2] | dogs successfully resuscitated [3] |
| --- | --- | --- | --- | --- |
| CC(C)NCC(O)c1ccc(O)c(O)c1 (stereo not drawn) [isoproterenol] | 60 | also increased | – | – |
| N[C@@H](Cc1cc(I)c(Oc2ccc(O)c(I)c2)c(I)c1)C(=O)O [T3, 3,5,3′ triiodothyronine] | 15 | rapidly and significantly increased | acutely increased | Three out of four |
